Laboratory results taken from ChEMBL document CHEMBL5143707, “Benzodiazepine Derivatives as Potent Vasopressin V2 Receptor Antagonists for the Treatment of Autosomal Dominant Kidney Disease” (J Med Chem, 2022).

Assays:
[1] = in vivo; details: C57BL/6, mouse, kidney, sc, 5 mg/kg
[2] = in vivo; details: C57BL/6, mouse, kidney, sc, 5 mg/kg; remark: listed apart in the source

concentration at 1 h [1]: 3900 ng/g | concentration at 0.5 h [2]: 6100 ng/g
SMILES: Cc1ccccc1C(=O)Nc1ccc(C(=O)N2CCCC(O)c3cc(Cl)ccc32)c(C)c1 (configuration not stated) [TOLVAPTAN]
